Experimental data reported in patent publication US11981658B2, “Substituted aminopyridine compounds as EGFR inhibitors” (YUHAN CORPORATION, priority 2021, dated 2024).
Where two headings read alike, the source gives them in different places.

Assays:
EGFR wildtype (WT) = EGFR wildtype (WT) (Homo sapiens, UniProt P00533); experiment: Biochemical EGFR kinase inhibition assay (Lance Ultra TR-FRET), wildtype
Experimental: (§1) Biochemical EGFR kinase assays were conducted using Lance Ultra time-resolved fluorescence resonance energy transfer (TR-FRET) technology from Perkin-Elmer. Compounds of the invention were initially diluted to 20 mM in 100% DMSO for storage and made into kinase buffer solution to create a compound concentration ranging from 0.003 μM and 10 μM.
(§2) Each kinase reactions were incubated at room temperature for 1 hour and then stopped by the addition of 4 μL of stop solution (10 mM EDTA). The specific Europium-labeled-anti-phosphopeptide antibody (PerkinElmer, AD0069) diluted in LANCE detection buffer was then added to a final concentration of 2 nM. After 60 minutes incubation at room temperature the LANCE signal was measured on an EnVision Multilabel Reader (Perkin-Elmer). Excitation wavelength was set at 320 nm and emission monitored at 615 nm (donor) and 665 nm (acceptor). The IC50 values were determined using GraphPad prism software (GraphPad Software, Inc., San Diego, CA, USA).

EGFR Del19/C797S = EGFR Del19/C797S (Homo sapiens, UniProt P00533, C797S/DEL746-750); experiment: Biochemical EGFR kinase inhibition assay (Lance Ultra TR-FRET), double mutant del19/C797S
Experimental: as §1, §2

EGFR L858R/T790M/C797S = EGFR L858R/T790M/C797S (Homo sapiens, UniProt P00533, C797S/L858R/T790M); experiment: Biochemical EGFR kinase inhibition assay (Lance Ultra TR-FRET), triple mutant L858R/T790M/C797S
Experimental: as §1, §2

EGFR Del19/T790M/C797S = EGFR Del19/T790M/C797S (Homo sapiens, UniProt P00533, C797S/DEL746-750/T790M); experiment: Biochemical EGFR kinase inhibition assay (Lance Ultra TR-FRET), triple mutant del19/T790M/C797S
Experimental: as §1, §2

[1] = Km ATP, read-out: IC50 WT (nM) Km ATP
[2] = Km ATP, read-out: IC50 Del19/C797S (nM) Km ATP
[3] = Km ATP, read-out: IC50 L858R/T790M/C797S (nM) Km ATP
[4] = Km ATP, read-out: IC50 Del19/T790M/C797S (nM) Km ATP
[5] = IC50 Del19/C797S (nM), 100 μM ATP
[6] = IC50 L858R/T790M/C797S (nM), 100 μM ATP
[7] = IC50 Del19/T790M/C797S (nM), 100 μM ATP
[8] = ATP at Km, read-out: IC50 WT (nM), Km ATP
[9] = ATP at Km, read-out: IC50 Del19/C797S (nM), Km ATP
[10] = ATP at Km, read-out: IC50 Del19/T790M/C797S (nM), Km ATP

Chain of EGFR Del19/T790M/C797S (P00533 with tags, fused parts or gaps DEL746-750/T790M/C797S): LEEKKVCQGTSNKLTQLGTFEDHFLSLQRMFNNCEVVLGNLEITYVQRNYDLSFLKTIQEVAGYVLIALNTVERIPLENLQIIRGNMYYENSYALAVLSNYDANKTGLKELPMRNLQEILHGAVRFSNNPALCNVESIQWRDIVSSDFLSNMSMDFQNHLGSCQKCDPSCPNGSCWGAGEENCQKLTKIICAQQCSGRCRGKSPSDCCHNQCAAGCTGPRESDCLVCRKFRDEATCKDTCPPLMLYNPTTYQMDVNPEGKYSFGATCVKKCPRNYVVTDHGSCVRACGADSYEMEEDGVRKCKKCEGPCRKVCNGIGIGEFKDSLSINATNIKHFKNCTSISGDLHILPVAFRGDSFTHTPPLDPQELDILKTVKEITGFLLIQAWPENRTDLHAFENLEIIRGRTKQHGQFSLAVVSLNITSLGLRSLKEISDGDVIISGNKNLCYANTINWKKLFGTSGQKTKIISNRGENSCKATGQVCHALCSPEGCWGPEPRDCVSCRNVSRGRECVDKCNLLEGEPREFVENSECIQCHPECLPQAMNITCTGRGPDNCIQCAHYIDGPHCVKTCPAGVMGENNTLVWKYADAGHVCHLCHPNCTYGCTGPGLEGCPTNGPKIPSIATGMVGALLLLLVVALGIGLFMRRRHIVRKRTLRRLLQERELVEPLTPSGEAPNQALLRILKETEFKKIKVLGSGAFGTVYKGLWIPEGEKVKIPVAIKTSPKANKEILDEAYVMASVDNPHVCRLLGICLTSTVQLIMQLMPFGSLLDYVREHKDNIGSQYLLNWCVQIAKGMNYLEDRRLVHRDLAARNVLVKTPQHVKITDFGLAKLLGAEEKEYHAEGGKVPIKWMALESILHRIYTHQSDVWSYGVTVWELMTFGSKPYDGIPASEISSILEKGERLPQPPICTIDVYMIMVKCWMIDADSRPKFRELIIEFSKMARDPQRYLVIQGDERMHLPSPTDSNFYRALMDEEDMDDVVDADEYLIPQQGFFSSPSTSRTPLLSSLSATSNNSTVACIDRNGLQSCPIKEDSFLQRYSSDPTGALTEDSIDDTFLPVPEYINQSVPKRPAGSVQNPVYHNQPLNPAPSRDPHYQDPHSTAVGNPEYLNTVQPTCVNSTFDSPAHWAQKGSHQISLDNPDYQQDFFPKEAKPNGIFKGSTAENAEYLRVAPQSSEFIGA
Chain of EGFR Del19/C797S (P00533 with tags, fused parts or gaps DEL746-750/C797S): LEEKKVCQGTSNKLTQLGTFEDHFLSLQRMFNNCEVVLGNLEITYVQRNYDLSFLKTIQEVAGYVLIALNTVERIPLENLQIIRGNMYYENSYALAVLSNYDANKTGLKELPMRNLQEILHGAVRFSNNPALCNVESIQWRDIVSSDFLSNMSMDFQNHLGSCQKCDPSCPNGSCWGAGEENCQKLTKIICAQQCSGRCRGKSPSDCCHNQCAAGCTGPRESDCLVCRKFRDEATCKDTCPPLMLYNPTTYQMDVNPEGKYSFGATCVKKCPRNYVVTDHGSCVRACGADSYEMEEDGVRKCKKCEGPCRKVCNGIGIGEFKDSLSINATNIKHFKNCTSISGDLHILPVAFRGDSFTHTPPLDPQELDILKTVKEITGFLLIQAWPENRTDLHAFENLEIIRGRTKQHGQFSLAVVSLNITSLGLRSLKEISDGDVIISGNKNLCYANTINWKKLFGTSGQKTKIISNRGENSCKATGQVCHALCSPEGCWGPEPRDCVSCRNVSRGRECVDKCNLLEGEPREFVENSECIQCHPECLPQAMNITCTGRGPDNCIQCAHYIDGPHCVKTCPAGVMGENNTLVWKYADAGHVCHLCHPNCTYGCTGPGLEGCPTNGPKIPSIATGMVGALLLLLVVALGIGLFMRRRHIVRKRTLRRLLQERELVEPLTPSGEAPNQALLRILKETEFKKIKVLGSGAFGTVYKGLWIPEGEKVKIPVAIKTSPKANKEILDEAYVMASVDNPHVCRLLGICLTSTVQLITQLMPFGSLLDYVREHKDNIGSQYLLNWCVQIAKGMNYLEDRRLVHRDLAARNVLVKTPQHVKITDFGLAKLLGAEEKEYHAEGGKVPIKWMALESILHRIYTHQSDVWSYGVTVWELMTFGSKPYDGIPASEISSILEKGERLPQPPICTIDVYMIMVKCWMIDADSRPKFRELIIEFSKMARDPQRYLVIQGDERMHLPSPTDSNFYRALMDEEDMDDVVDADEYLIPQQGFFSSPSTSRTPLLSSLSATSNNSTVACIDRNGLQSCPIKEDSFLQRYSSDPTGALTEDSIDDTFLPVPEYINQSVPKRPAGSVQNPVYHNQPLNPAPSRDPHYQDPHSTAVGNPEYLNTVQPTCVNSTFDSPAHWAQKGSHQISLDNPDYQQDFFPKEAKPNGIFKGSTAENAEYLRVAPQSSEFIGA
Chain of EGFR L858R/T790M/C797S (P00533 25-1210 T790M/C797S/L858R): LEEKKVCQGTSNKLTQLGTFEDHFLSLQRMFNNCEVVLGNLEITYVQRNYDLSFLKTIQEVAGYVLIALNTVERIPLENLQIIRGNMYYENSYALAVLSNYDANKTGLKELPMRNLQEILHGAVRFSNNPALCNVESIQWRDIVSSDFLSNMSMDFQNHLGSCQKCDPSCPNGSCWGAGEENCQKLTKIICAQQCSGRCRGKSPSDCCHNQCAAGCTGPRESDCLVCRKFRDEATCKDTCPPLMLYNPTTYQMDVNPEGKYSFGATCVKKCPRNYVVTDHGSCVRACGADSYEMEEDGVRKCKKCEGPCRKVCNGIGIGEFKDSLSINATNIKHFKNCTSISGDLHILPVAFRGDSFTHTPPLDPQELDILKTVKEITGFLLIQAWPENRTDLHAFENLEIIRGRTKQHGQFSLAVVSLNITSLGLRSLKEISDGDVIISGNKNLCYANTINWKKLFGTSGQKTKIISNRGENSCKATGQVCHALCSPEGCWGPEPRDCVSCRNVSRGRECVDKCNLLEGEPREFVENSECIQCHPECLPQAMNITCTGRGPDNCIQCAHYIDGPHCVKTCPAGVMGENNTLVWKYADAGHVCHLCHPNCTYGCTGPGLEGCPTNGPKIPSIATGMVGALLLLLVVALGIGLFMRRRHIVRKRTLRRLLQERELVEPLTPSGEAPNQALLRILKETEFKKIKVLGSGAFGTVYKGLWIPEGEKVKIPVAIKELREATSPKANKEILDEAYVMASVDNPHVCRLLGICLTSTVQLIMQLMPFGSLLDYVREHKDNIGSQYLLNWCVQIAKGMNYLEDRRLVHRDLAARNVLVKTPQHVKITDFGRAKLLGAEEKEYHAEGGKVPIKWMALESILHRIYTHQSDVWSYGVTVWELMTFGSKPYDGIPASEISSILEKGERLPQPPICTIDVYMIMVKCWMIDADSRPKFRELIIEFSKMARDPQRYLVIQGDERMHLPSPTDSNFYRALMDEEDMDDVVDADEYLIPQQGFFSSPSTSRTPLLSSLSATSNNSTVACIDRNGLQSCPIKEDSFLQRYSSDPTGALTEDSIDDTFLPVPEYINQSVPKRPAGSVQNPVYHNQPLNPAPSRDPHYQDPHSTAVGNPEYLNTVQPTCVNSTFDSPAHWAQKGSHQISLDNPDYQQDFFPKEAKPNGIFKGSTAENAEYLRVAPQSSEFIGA
Chain of EGFR wildtype (WT) (P00533 25-1210): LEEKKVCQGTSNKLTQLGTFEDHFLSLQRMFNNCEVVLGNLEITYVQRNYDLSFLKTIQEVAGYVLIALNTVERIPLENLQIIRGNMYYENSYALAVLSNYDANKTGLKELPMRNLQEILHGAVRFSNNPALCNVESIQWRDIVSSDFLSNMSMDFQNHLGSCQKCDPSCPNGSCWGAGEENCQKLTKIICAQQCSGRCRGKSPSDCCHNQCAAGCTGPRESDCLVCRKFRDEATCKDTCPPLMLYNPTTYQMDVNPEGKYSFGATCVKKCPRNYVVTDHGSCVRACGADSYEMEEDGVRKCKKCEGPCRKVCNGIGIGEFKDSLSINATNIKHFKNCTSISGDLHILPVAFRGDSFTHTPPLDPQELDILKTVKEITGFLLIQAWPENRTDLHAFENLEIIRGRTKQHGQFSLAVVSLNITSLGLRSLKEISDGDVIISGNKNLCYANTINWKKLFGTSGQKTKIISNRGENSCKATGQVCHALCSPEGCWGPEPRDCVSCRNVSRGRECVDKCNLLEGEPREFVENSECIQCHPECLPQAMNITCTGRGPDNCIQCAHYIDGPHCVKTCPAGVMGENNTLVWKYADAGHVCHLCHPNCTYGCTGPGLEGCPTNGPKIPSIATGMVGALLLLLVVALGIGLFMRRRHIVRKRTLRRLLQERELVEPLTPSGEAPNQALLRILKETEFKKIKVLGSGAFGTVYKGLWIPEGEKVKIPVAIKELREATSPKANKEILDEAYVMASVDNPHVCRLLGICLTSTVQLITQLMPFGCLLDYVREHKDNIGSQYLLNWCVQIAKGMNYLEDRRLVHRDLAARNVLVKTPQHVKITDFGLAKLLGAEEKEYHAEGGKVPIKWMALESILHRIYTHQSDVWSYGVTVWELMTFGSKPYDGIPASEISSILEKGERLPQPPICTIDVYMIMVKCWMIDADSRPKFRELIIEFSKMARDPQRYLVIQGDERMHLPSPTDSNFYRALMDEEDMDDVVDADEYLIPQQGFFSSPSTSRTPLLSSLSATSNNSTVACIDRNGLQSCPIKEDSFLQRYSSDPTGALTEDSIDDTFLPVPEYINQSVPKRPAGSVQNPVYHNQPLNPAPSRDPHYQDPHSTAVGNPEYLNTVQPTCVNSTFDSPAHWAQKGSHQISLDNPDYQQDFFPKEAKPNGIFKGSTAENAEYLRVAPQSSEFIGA

| SMILES | IC50 (EGFR wildtype (WT); [1]) [nM] | IC50 (EGFR Del19/C797S; [2]) [nM] | IC50 (EGFR L858R/T790M/C797S; [3]) [nM] | IC50 (EGFR Del19/T790M/C797S; [4]) [nM] | IC50 (EGFR wildtype (WT); IC50 WT (nM), 100 μM ATP) [nM] | IC50 (EGFR Del19/C797S; [5]) [nM] | IC50 (EGFR L858R/T790M/C797S; [6]) [nM] | IC50 (EGFR Del19/T790M/C797S; [7]) [nM] | IC50 (EGFR wildtype (WT); [8]) [nM] | IC50 (EGFR Del19/C797S; [9]) [nM] | IC50 (EGFR Del19/T790M/C797S; [10]) [nM] |
| --- | --- | --- | --- | --- | --- | --- | --- | --- | --- | --- | --- |
| CCC(C)Oc1cc(Nc2ccnc(-c3cnn(S(=O)(=O)C4CC4)c3)n2)ncc1C#Cc1cnn(C)c1 (stereo not drawn) [Example 56, N-(4-(sec-Butoxy)-5-((1-methyl-1H-pyrazol-4-yl)ethynyl)pyridin-2-yl)-2-(1-(cyclopropylsulfonyl)-1H-pyrazol-4-yl)pyrimidin-4-amine] | > 10000 | 291 | 24.2 | 7.6 |  |  |  |  |  |  |  |
| CC(C)Nc1cc(Nc2ccnc(-c3cnn(S(=O)(=O)C4CC4)c3)n2)ncc1C#Cc1cnn(C)c1 [Example 18, N^2-(2-(1-(Cyclopropylsulfonyl)-1H-pyrazol-4-yl)pyrimidin-4-yl)-N^4-isopropyl-5-((1-methyl-1H-pyrazol-4-yl)ethynyl)pyridine-2,4-diamine] | 213 | 35.5 | 3.3 | 2.2 | > 10000 | 47.3 | 1.1 | 1.6 |  |  |  |
| CCC(C)Nc1cc(Nc2ccnc(-c3cnn(S(=O)(=O)C4CC4)c3)n2)ncc1C#Cc1cnn(C(C)C)c1 (stereo not drawn) [Example 25, N^4-(sec-Butyl)-N^2-(2-(1-(cyclopropylsulfonyl)-1H-pyrazol-4-yl)pyrimidin-4-yl)-5-((1-isopropyl-1H-pyrazol-4-yl)ethynyl)pyridine-2,4-diamine] | 915 | 105 | 6.5 | 6.9 |  |  |  |  |  |  |  |
| CCC(C)Nc1cc(Nc2ccnc(-c3cnn(S(=O)(=O)C4CC4)c3)n2)ncc1C#Cc1cnn(CCF)c1 (stereo not drawn) [Example 26, N^4-(sec-Butyl)-N^2-(2-(1-(cyclopropylsulfonyl)-1H-pyrazol-4-yl)pyrimidin-4-yl)-5-((1-(2-fluoroethyl)-1H-pyrazol-4-yl)ethynyl)pyridine-2,4-diamine] | 545 | 58.1 | 3.6 | 3.1 |  |  |  |  |  |  |  |
| CCC(C)Nc1cc(Nc2ccnc(-c3cnn(S(=O)(=O)C4CC4)c3)n2)ncc1C#Cc1cnn(C)c1 (stereo not drawn) [Example 24, N^4-(sec-Butyl)-N^2-(2-(1-(cyclopropylsulfonyl)-1H-pyrazol-4-yl)pyrimidin-4-yl)-5-((1-methyl-1H-pyrazol-4-yl)ethynyl)pyridine-2,4-diamine] | 462 | 32.9 | 4.4 | 2.7 |  |  |  |  |  |  |  |
| CC(C)Nc1cc(Nc2ccnc(-c3cnn(S(=O)(=O)C4CC4)c3)n2)ncc1C#Cc1cccnc1 [Example 21, N^2-(2-(1-(Cyclopropylsulfonyl)-1H-pyrazol-4-yl)pyrimidin-4-yl)-N^4-isopropyl-5-(pyridin-3-ylethynyl)pyridine-2,4-diamine] | 374 | 34.3 | 1.8 | 0.8 |  |  |  |  |  |  |  |
| CC(C)Nc1cc(Nc2ccnc(-c3cnn(S(=O)(=O)C4CC4)c3)n2)ncc1C#Cc1cnn(C(C)C)c1 [Example 19, N^2-(2-(1-(Cyclopropylsulfonyl)-1H-pyrazol-4-yl)pyrimidin-4-yl)-N^4-isopropyl-5-((1-isopropyl-1H-pyrazol-4-yl)ethynyl)pyridine-2,4-diamine] | 1680 | 41.8 | 2.3 | 4.4 | > 10000 | 140 | 3.7 | 5.4 |  |  |  |

Continued, values first:

| IC50 (EGFR wildtype (WT); [1]) [nM] | IC50 (EGFR Del19/C797S; [2]) [nM] | IC50 (EGFR L858R/T790M/C797S; [3]) [nM] | IC50 (EGFR Del19/T790M/C797S; [4]) [nM] | IC50 (EGFR wildtype (WT); IC50 WT (nM), 100 μM ATP) [nM] | IC50 (EGFR Del19/C797S; [5]) [nM] | IC50 (EGFR L858R/T790M/C797S; [6]) [nM] | IC50 (EGFR Del19/T790M/C797S; [7]) [nM] | IC50 (EGFR wildtype (WT); [8]) [nM] | IC50 (EGFR Del19/C797S; [9]) [nM] | IC50 (EGFR Del19/T790M/C797S; [10]) [nM] | SMILES |
| --- | --- | --- | --- | --- | --- | --- | --- | --- | --- | --- | --- |
| 1340 | 299 | 15.5 | 4.5 |  |  |  |  |  |  |  | Cn1cc(C#Cc2cnc(Nc3ccnc(-c4cnn(S(=O)(=O)C5CC5)c4)n3)cc2-c2cnn(C)c2)cn1 [Example 233, 2-(1-(Cyclopropylsulfonyl)-1H-pyrazol-4-yl)-N-(4-(1-methyl-1H-pyrazol-4-yl)-5-((1-methyl-1H-pyrazol-4-yl)ethynyl)pyridin-2-yl)pyrimidin-4-amine] |
| 2220 | 311 | 13.2 | 4.7 |  |  |  |  |  |  |  | Cn1cc(C#Cc2cnc(Nc3ccnc(-c4cnn(S(=O)(=O)C5CC5)c4)n3)cc2-c2cnn(C3CC3)c2)cn1 [Example 235, N-(4-(1-Cyclopropyl-1H-pyrazol-4-yl)-5-((1-methyl-1H-pyrazol-4-yl)ethynyl)pyridin-2-yl)-2-(1-(cyclopropylsulfonyl)-1H-pyrazol-4-yl)pyrimidin-4-amine] |
| 2580 | 138 | 13.2 | 6.1 |  |  |  |  |  |  |  | CC(C)Oc1cc(Nc2ccnc(-c3cnn(S(=O)(=O)C4CC4)c3)n2)ncc1C#Cc1cnn(C)c1 [Example 54, 2-(1-(Cyclopropylsulfonyl)-1H-pyrazol-4-yl)-N-(4-isopropoxy-5-((1-methyl-1H-pyrazol-4-yl)ethynyl)pyridin-2-yl)pyrimidin-4-amine] |
| 2720 | 232 | 16.5 | 5.5 |  |  |  |  |  |  |  | O=S(=O)(C1CC1)n1cc(-c2nccc(Nc3cc(-c4cnn(C5CC5)c4)c(C#Cc4cnn(CCF)c4)cn3)n2)cn1 [Example 237, N-(4-(1-Cyclopropyl-1H-pyrazol-4-yl)-5-((1-(2-fluoroethyl)-1H-pyrazol-4-yl)ethynyl)pyridin-2-yl)-2-(1-(cyclopropylsulfonyl)-1H-pyrazol-4-yl)pyrimidin-4-amine] |
| 1010 | 214 | 16.1 | 4.1 |  |  |  |  |  |  |  | Cn1cc(-c2cc(Nc3ccnc(-c4cnn(S(=O)(=O)C5CC5)c4)n3)ncc2C#Cc2cnn(CCF)c2)cn1 [Example 234, 2-(1-(Cyclopropylsulfonyl)-1H-pyrazol-4-yl)-N-(5-((1-(2-fluoroethyl)-1H-pyrazol-4-yl)ethynyl)-4-(1-methyl-1H-pyrazol-4-yl)pyridin-2-yl)pyrimidin-4-amine] |
| 2630 | 398 | 19.1 | 7 |  |  |  |  |  |  |  | CC(C)Oc1cc(Nc2ccnc(-c3cnn(S(=O)(=O)C4CC4)c3)n2)ncc1C#Cc1cnn(CCF)c1 [Example 55, 2-(1-(Cyclopropylsulfonyl)-1H-pyrazol-4-yl)-N-(5-((1-(2-fluoroethyl)-1H-pyrazol-4-yl)ethynyl)-4-isopropoxypyridin-2-yl)pyrimidin-4-amine] |
|  |  |  |  | > 10000 | 120 | 8.1 | 3.5 | 107 | 56 | 5.1 | CC(C)Nc1cc(Nc2ccnc(-c3cnn(S(=O)(=O)C4CC4)c3)n2)ncc1C#CCCCC(=O)N1CCOCC1 [Example 208, 6-(6-((2-(1-(Cyclopropylsulfonyl)-1H-pyrazol-4-yl)pyrimidin-4-yl)amino)-4-(isopropylamino)pyridin-3-yl)-1-morpholinohex-5-yn-1-one] |
|  |  |  |  | > 10000 | 1000 | 29.8 | 11.3 | 4100 | 350 | 12.6 | CC(C)Nc1cc(Nc2ccnc(-c3cnn(S(=O)(=O)C4CC4)c3)n2)ncc1C#Cc1csc(CF)n1 [Example 200, N^2-(2-(1-(cyclopropylsulfonyl)-1H-pyrazol-4-yl)pyrimidin-4-yl)-5-((2-(fluoromethyl)thiazol-4-yl)ethynyl)-N^4-isopropylpyridine-2,4-diamine] |
|  |  |  |  | > 10000 | 197 | 12.2 | 5.2 |  |  |  | Cc1nc(C#Cc2cnc(Nc3ccnc(-c4cnn(S(=O)(=O)C5CC5)c4)n3)cc2N[C@H]2CC[C@H](O)C2)cs1 [Example 222, (1 S,3S)-3-((2-((2-(1-(Cyclopropylsulfonyl)-1H-pyrazol-4-yl)pyrimidin-4-yl)amino)-5-((2-methylthiazol-4-yl)ethynyl)pyridin-4-yl)amino)cyclopentan-1-ol] |
